The source made the active and inactive calls. The calls are words filed in the database; no cut-off is given here.

Data set [1] can be described thus: Cytotoxicity against human MCF10A cells after 72 hrs by MTT assay. The class given is cell-based. The following applies: mcf-10a. (Tetrazolium assays rely on reduction of a dye to a coloured formazan, in cell work by metabolically active cells.)
The subject of data set [2] is MCF7. The data set is described as follows: Cytotoxicity against human MCF7 cells expressing estrogen and progesterone receptor after 72 hrs by MTT assay. The data set is classed as functional, cell-based.
The target of data set [3] is Transcription factor p65 (Homo sapiens) (UniProt Q04206). The data set is described as follows: Reduction of NFkappaB p65 expression in estrogen receptor-deficient human MDA-MB-231 cells at 5 uM after 72 hrs by Western blot analysis. The data set is classed as cell-based. A general note: Immunoblotting shows a protein as a band on a membrane.
Transcription factor p65 (Homo sapiens), sequence (Q04206 whole entry): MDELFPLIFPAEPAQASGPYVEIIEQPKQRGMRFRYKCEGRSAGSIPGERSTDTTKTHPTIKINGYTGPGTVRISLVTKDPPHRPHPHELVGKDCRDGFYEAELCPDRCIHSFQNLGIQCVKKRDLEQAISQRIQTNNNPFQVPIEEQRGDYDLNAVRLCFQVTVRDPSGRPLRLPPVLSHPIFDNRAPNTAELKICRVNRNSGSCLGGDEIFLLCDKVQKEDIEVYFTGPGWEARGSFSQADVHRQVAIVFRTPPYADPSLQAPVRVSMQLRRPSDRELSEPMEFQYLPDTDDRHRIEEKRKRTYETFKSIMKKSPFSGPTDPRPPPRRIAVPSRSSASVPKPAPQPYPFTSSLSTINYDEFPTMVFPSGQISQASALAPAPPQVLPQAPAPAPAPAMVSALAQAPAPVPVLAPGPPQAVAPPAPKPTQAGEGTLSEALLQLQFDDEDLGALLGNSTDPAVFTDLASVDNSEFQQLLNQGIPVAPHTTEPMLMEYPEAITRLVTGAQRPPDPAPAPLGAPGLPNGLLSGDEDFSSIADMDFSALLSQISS
For data set [4], the system named is MDA-MB-231. The data set is described as follows: Cytotoxicity against estrogen receptor-deficient human MDA-MB-231 cells after 72 hrs by MTT assay. The data set is classed as functional, cell-based. To be noted: MDA-MB-231, 72 h.

As for `CC(=O)N/N=C1\C=C(C)C(=O)c2cccc(O)c21`, the Activity entry in data set [1] is reported as “Non-toxic”. The result in data set [2] was Active.

As for `CC1=C/C(=N\NC(N)=S)c2c(O)cccc2C1=O`, in data set [1], the Activity result is “Non-toxic”. The outcome in data set [2] was Active.

Regarding `CC1=CC(=O)c2c(O)cccc2C1=O`, the outcome in data set [2] was Active.

With `CC1=C/C(=N\NC(=O)c2cc3ccccc3cc2O)c2c(O)cccc2C1=O`, the outcome in data set [3] and in data set [2] was Active. The Activity entry in data set [1] is “Non-toxic”. For the same molecule, in data set [4], the IC50 (commonly the midpoint of a concentration-inhibition curve) was 3.2 µM.

For `CC1=C/C(=N\NC(=O)Cc2c[nH]c3ccccc23)c2c(O)cccc2C1=O`, the result in data set [3] and in data set [2] was Active. The Activity entry in data set [1] is listed as “Non-toxic”. This molecule yielded an IC50 in data set [4] of 1.5 µM.

The record behind these values is ChEMBL document CHEMBL3286223, “Anticancer phytochemical analogs 37: synthesis, characterization, molecular docking and cytotoxicity of novel plumbagin hydrazones against breast cancer cells” (Bioorg Med Chem Lett, 2014).
